From patent US20260103471A1, “CYCLIC UREA THIAZOLYL COMPOUNDS FOR TREATMENT OF HSV” (Assembly Biosciences, Inc., priority 2022, published 2026) come the findings set out here.

Where only a bound is given, the exact number is not on record here.

One assay relates to HSV-2 G strain. The experiment in a line: HSV-2 Antiviral Assay (Vero cells, cell viability). The assay is classed as cell-based. The following applies: Human alphaherpesvirus 2, Vero, 120 h, Vero cells, 160 TCID50 HSV-2 G strain, 5 days, cell viability. In short, it runs like this: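 Vero cells (1.0×10^4/well, attached overnight) given 8-point 3-fold compound dilutions (0.5% DMSO) then infected with 160 TCID50 HSV-2 G strain in 2% FBS medium for 5 days at 37 °C. Protection read as cell viability by WST-8 absorbance at 460 and 620 nm after 3 h.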
For `COc1cc(-c2ccc(N3CCCN(c4nc(C)c(S(N)(=O)=O)s4)C3=O)cc2)c2nsnc2c1` [Compound 303], the EC50 was below 100 nM.

Consider `Cc1nc(N2CCCN(c3ccc(-c4ccccc4)c4sncc34)C2=O)sc1S(N)(=O)=O` [Compound 312], for which the EC50 lay in the range of 1000 to 5000 nM.

Turning to `Cc1nc(N2CCCN(c3ccc(-c4cc(-c5cncs5)ccc4F)cc3)C2=O)sc1S(N)(=O)=O` [Compound 230], the EC50 was 100 to 1000 nM.

`Cc1nc(N2CCCN(c3ccc(-c4ccccc4C#CC4CC4)cc3)C2=O)sc1S(N)(=O)=O` [Compound 220] showed an EC50 below 100 nM.

For `CSc1ccccc1-c1ccc(N2CCCN(c3nc(C)c(S(N)(=O)=O)s3)C2=O)cc1` [Compound 11], the EC50 was below 100 nM.

In turn, `Cc1nc(N2CCCN(c3ccc(-c4cc(F)ccc4F)cc3)C2=O)sc1S(=O)(=O)NCCCCO` [Compound 389] had a 50% effective concentration (EC50) below 100 nM.

In turn, `Cc1nc(N2CCCN(c3ccc(-c4cc(F)c(F)c(F)c4)cc3)C2=O)sc1S(N)(=O)=O` [Compound 188] gave an EC50 of 100 to 1000 nM.

The compound `CN=S(C)(=O)c1sc(N2CCCN(c3ccc(-c4ccccc4F)cc3)C2=O)nc1C` (stereo not drawn) [Compound 145] came in with an EC50 of 100 to 1000 nM.

The compound `Cc1nc(N2CCCN(c3ccc(-c4cc(F)ccc4F)cc3)C2=O)sc1S(=O)(=O)N1CC[C@@H](N)C1` [Compound 399] came in with an EC50 of 100 to 1000 nM.

`Cc1nc(N2CCCN(c3ccc(-c4cccc5cc(N)ncc45)cc3)C2=O)sc1S(N)(=O)=O` [Compound 268] displayed an EC50 below 100 nM.

For `Cc1nc(N2CC(C(=O)O)CN(c3ccc(-c4cc(F)ccc4F)cc3)C2=O)sc1S(N)(=O)=O` (stereo not drawn) [Compound 380], the EC50 was in the range of 1000 to 5000 nM.

`Cc1nc(N2CCCN(c3ccc(-c4cccc5c(C)csc45)cc3)C2=O)sc1S(N)(=O)=O` [Compound 275] showed an EC50 below 100 nM.

For `Cc1nc(N2CCCN(c3ccc(-c4ccccc4F)cc3)C2=O)sc1S(C)(=N)=O` (stereo not drawn) [Compound 142], the EC50 lay in the range of 100 to 1000 nM.

The compound `Cc1nc(N2C[C@@H](C(C)(C)F)CN(c3ccc(-c4cc(F)ccc4F)cc3)C2=O)sc1S(N)(=O)=O` (single isomer, unassigned) [Compound 351] registered an EC50 below 100 nM.

For the compound `Cc1nc(N2CC3(COC3)CN(c3ccc(-c4cc(F)ccc4F)cc3)C2=O)sc1S(C)(=N)=O` (stereo not drawn) [Compound 431], the EC50 is below 100 nM.

Take `Cc1nc(N2C[C@H](O)CN(c3ccc(-c4cc(F)ccc4F)cc3)C2=O)sc1S(N)(=O)=O` (single isomer, unassigned) [Compound 354]: the EC50 is below 100 nM.

In the case of `Cc1nc(N2CCCN(c3ccc(-c4cccc(Cl)c4)cc3)C2=O)sc1S(N)(=O)=O` [Compound 191], the EC50 is below 100 nM.

In turn, `Cc1nc(N2CCCN(c3ccc(-c4cc(Cl)c(Cl)cn4)cc3)C2=O)sc1S(N)(=O)=O` [Compound 234] had an EC50 below 100 nM.

For `COc1ccc(F)cc1-c1ccc(N2C[C@@H](C)CN(c3nc(C)c(S(N)(=O)=O)s3)C2=O)cc1` (single isomer, unassigned) [Compound 330], the EC50 was below 100 nM.

`Cc1nc(N2CCCN(c3ccc(-c4cc(F)ccc4F)cc3)C2=O)sc1S(=O)(=O)NN` [Compound 405]: the EC50 was 100 to 1000 nM.

The compound `Cc1nc(N2CCCN(c3ccc(-c4cc(F)ccc4F)cc3)C2=O)sc1S(=O)(=O)NC(C)(C)CO` [Compound 402] gave an EC50 of 100 to 1000 nM.

In turn, `Cc1nc(N2CCCN(c3ccc(-c4cc(F)cc(C(F)F)c4)cc3)C2=O)sc1S(N)(=O)=O` [Compound 222] displayed an EC50 below 100 nM.

Take `Cc1cc(F)cc(-c2ccc(N3CCCN(c4nc(C)c(S(N)(=O)=O)s4)C3=O)cc2)n1` [Compound 237]: the EC50 was below 100 nM.

Consider `COc1ccc(-c2ccc(N3CCCN(c4nc(C)c(S(N)(=O)=O)s4)C3=O)cc2)c2ccn(C)c12` [Compound 296], for which the EC50 lay within 100 to 1000 nM.

With `Cc1nc(N2CCCN(c3ccc(-c4cc(F)cc5nsnc45)cc3)C2=O)sc1S(=O)(=O)NCCCO` [Compound 418], the EC50 is below 100 nM.

`Cc1csc(-c2ccc(N3CC4(CC4)CN(c4nc(C)c(S(N)(=O)=O)s4)C3=O)cc2)n1` [Compound 114] displayed an EC50 below 100 nM.

The compound `Cc1nc(N2CCCN(c3ccc(-c4cccc5c4OCCO5)cc3)C2=O)sc1S(N)(=O)=O` [Compound 249] gave an EC50 below 100 nM.

The compound `COc1ccc(F)cc1-c1ccc(N2CC(C)CN(c3nc(C)c(S(N)(=O)=O)s3)C2=O)cc1` (stereo not drawn) [Compound 329] returned an EC50 below 100 nM.

`Cc1nc(N2CCCN(c3ccc(-c4cccc(N)n4)cc3)C2=O)sc1S(=O)(=O)NC1CC1` [Compound 410] showed an EC50 below 100 nM.

As to `CONS(=O)(=O)c1sc(N2CCCN(c3ccc(-c4cc(F)ccc4F)cc3)C2=O)nc1C` [Compound 386], the EC50 was below 100 nM.

Take `Cc1nc(N2CC(C(F)F)CN(c3ccc(-c4cc(F)ccc4F)cc3)C2=O)sc1S(N)(=O)=O` (stereo not drawn) [Compound 349]: the EC50 was below 100 nM.

The subject of the next assay is HSV-1. The experiment in a line: HSV-1 Antiviral Assay (Vero cells, cell viability). It counts as cell-based. The settings on record: Human alphaherpesvirus 1, 96 h; Vero cells, 80 TCID50 HSV-1, 4 days, cell viability; read-out: HSV-1 EC50. As to the method:
Vero cells were cultured in Dulbecco's Modified Eagle Medium (DMVEM) supplemented with […] and 100 units/mL penicillin and streptomycin. The cells were passaged 2-3 times per week to maintain sub-confluent densities.
Vero cells were seeded into 96-well plates at a density of 2.5×10^3 cells per well and allowed to attach overnight. Following attachment, the media was replaced with 50 μL of infection medium (DMVEM supplemented with 2% fetal bovine serum and 100 units/mL penicillin and streptomycin). A Tecan D300e digital dispenser was then used to add compounds to the culture using an 8-point 3-fold serial dilution format. The DMSO concentration was normalized to 0.5% for all treatments. Following compound addition, 50 μL of infection medium containing 80 TCID50 HSV-1 was added to the cells and incubated at 37° C. for 4 days. After the incubation, the plates were equilibrated to room temperature, the media was removed, and […] a 1:1 dilution of Cell titer glow and phosphate buffered saline was added to the cells. Following a 5-minute incubation, cell viability was quantified by measuring luminance using a Tecan Infinite M1000 Pro plate reader.
In the case of `Cc1nc(N2CCCN(c3ccc(-c4cc(F)ccc4F)cc3)C2=O)sc1S(=O)(=O)N1CCNCC1` [Compound 135], the EC50 lay in the range of 100 to 1000 nM.

As for `Cc1nc(N2CCCN(c3ccc(-c4cccc5c4ncn5C)cc3)C2=O)sc1S(N)(=O)=O` [Compound 61], the EC50 fell in the range of 100 to 1000 nM.

`Cc1nc(N2CC3(CC3)CN(c3ccc(-c4ccccc4F)cc3)C2=O)sc1[S@@](C)(=N)=O` (single isomer, unassigned) [Compound 160]: the EC50 lay in the range of 100 to 1000 nM.

With `CCS(=N)(=O)c1sc(N2CCCN(c3ccc(-c4cc(F)ccc4F)cc3)C2=O)nc1C` (stereo not drawn) [Compound 148], the EC50 was below 100 nM.

As to `Cc1nc(N2CCCN(c3ccc(-c4cccc5ncn(C)c45)cc3)C2=O)sc1S(N)(=O)=O` [Compound 62], the EC50 was 1000 to 5000 nM.

For `Cc1nc(N2CCCN(c3ccc(-c4ccccc4F)cc3)C2=O)sc1[S+](C)[O-]` (stereo not drawn) [Compound 168], the EC50 lay in the range of 100 to 1000 nM.

As for `NS(=O)(=O)c1sc(N2CCCN(c3ccc(-c4ccccc4F)cc3)C2=O)nc1C(F)(F)F` [Compound 170], the EC50 is below 100 nM.

Take `Cc1nc(N2CCCN(c3ccc(-c4cnccn4)cc3)C2=O)sc1S(N)(=O)=O` [Compound 39]: the EC50 lay in the range of 100 to 1000 nM.

Consider `Cc1nc(N2CCCN(Cc3cccc(-c4cc(F)ccc4F)c3)C2=O)sc1S(=O)(=O)NC1CC1` [Compound 180], for which the EC50 is 100 to 1000 nM.

Consider `CC(=O)NS(=O)(=O)c1sc(N2CCCN(c3ccc(-c4cc(F)ccc4F)cc3)C2=O)nc1C` [Compound 137], for which the EC50 lay within 1000 to 5000 nM.

Turning to `Cc1nc(N2CC3(CC3)CN(c3ccc(-c4ccccc4F)cc3)C2=O)sc1S(N)(=O)=O` [Compound 111], the EC50 is below 100 nM.

Consider `Cc1nc(N2CCCN(c3ccc(-c4cccc5cn(C)nc45)cc3)C2=O)sc1S(N)(=O)=O` [Compound 53], for which the EC50 fell in the range of 100 to 1000 nM.

Consider `Cc1nc(N2CCCN(c3cnn(-c4ccccc4F)c3)C2=O)sc1S(N)(=O)=O` [Compound 100], for which the 50% effective concentration (EC50) lay within 1000 to 5000 nM.

Consider `C#Cc1cc(F)c(-c2ccc(N3CCCN(c4nc(C)c(S(N)(=O)=O)s4)C3=O)cc2)cc1F` [Compound 29], for which the EC50 lay in the range of 1000 to 5000 nM.

As to `Cc1nc(N2CCCN(C(C)c3cccc(-c4ccccc4F)c3)C2=O)sc1S(N)(=O)=O` (stereo not drawn) [Compound 177], the EC50 was 1000 to 5000 nM.

On to `Cc1nc(N2CCCN(c3ccc(-c4cccc5c4ccn5C)cc3)C2=O)sc1S(N)(=O)=O` [Compound 66], for which the EC50 is below 100 nM.

Staying with this assay, now noted: Human alphaherpesvirus 1, Vero, 96 h, read-out: HSV-1 EC50.
On to `Cc1nc(N2CCCN(c3ccc(-c4cc(F)ccc4F)cc3)C2=O)sc1S(=O)(=O)F` [Compound 165], for which the EC50 fell in the range of 1000 to 5000 nM.

The EC50 is the concentration giving half of the maximal effect.
